Experimental data from patent US9248111B2, “Therapeutic approaches for treating parkinson's disease” (PHARNEXT, priority 2011, dated 2016).
Entries after “also recorded” stand apart in the source; their conditions may differ.

Assays:
[1] = test system: dopaminergic neuron cell bodies of subtantia nigra pars compacta; experiment: Quantification of TH positive neurons in substantia nigra after 6-OHDA lesion; type: in vivo, rat; settings: FIG. 16A: BCL-ACP 3.75 and 0.25 mg/kg bid; L-DOPA 8 mg/kg with benserazide 12.5 mg/kg; vs non-treated 6-OHDA rats
Protocol: (§1) Wistar rats (5 weeks) were used after an acclimatization period of at least 5 days. Surgery was performed under ketamine (50 mg/kg) and xylazine (10 mg/kg). Animals received an unilateral injection of 12 μg of 6-OHDA (sigma Aldrich) dissolved in 6 μl of 0.9% sterile NaCl containing 0.1% ascorbic acid (to protect 6-OHDA from oxidation), at the flow rate of 1 μl/min, in the left substantia nigra pars compacta. The stereotaxic coordinates of the injection site will be: anteroposterior+2.2 mm, lateral 2.0 mm, dorsoventral+3 mm with the incisor bar at +5.0 mm above the interaural plane, according to the rat stereotaxic atlas by De Groot (1959).
(§2) The first administration of treatment or vehicle has been performed the day before the stereotaxic injection of 6-OHDA (for the lesion groups) or vehicle and all along the 15 days preceding the behavioral tests. […] During the study and for each animal, the volume of per os administrations was determined on the basis of the mean body weight of the animals of the corresponding group. Body weights will be determined twice a week and the volume of administration will thus be adjusted consequently. […]
TH positive neurons were counted in a set of the three sections centered on the track of the 6-OHDA injection needle in the SN, covering almost all the SN. […] Cell counted is done using a microscope connected to a computer image analysis system by a CDD camera.

[2] = test system: dopaminergic neuronal terminals in the left striatum; experiment: [3H]-mazindol labelling of dopaminergic terminals in striatum after 6-OHDA lesion; type: in vivo, rat; settings: FIG. 16B: BCL-ACP 3.75 and 0.25 mg/kg bid; L-DOPA 8 mg/kg with benserazide 12.5 mg/kg; vs non-treated 6-OHDA rats
Protocol: as §1, §2
The loss of DA terminals in the striatum was assessed as an index of the extent of the dopaminergic denervation by analysis of [^3H]-mazindol binding to dopamine uptake sites. […]

## N[C@@H](Cc1ccc(O)c(O)c1)C(=O)O [L-DOPA, levodopa]
[1]
  number of dopaminergic neurons in the left (intoxicated) part of SN: failed to inhibit; also recorded: not observed
[2]
  density of dopaminergic neuronal terminals in the left striatum (OD of [3H]-mazindol labelling): failed to inhibit; also recorded: not observed
